Assays:
Assay in all cases: relative viability (nuclei count vs DMSO), 5 days (fraction); higher = more cells survive
[1] = compound: COc1cc2nc(N3CCCN(C)CC3)nc(NC3CCN(Cc4ccccc4)CC3)c2cc1OC + Nc1nc2[nH]cc(CCc3ccc(C(=O)N[C@@H](CCC(=O)O)C(=O)O)cc3)c2c(=O)[nH]1 [Pemetrexed] (partner 0.2 µM)
Procedure, shortened: (§1)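 One day after seeding in 1536-well plates, lung cancer cell lines were dosed by pin tool. Dosing was either single-drug or a fixed anchor-drug dose plus five library-drug doses (not always all listed) in √10 steps. After 5 days, nuclei were stained in one fix-and-stain step and counted on 4× images, and relative viability is the nuclei count of treated wells over that of vehicle wells, given as the median of duplicate plates.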

AZD6482 + OSI-027 = compound: Cc1cc([C@@H](C)Nc2ccccc2C(=O)O)c2nc(N3CCOCC3)cc(=O)n2c1 [AZD6482] + COc1cccc2cc(-c3nc([C@H]4CC[C@H](C(=O)O)CC4)n4ncnc(N)c34)[nH]c12 [OSI-027] (partner 0.5 µM)
Procedure, shortened: as §1

AZD6482 + Decitabine = compound: Cc1cc([C@@H](C)Nc2ccccc2C(=O)O)c2nc(N3CCOCC3)cc(=O)n2c1 [AZD6482] + Nc1ncn([C@H]2C[C@H](O)[C@@H](CO)O2)c(=O)n1 [Decitabine] (partner 2 µM)
Procedure, shortened: as §1

AZD6482 + Olaparib = compound: Cc1cc([C@@H](C)Nc2ccccc2C(=O)O)c2nc(N3CCOCC3)cc(=O)n2c1 [AZD6482] + O=C(c1cc(Cc2n[nH]c(=O)c3ccccc23)ccc1F)N1CCN(C(=O)C2CC2)CC1 [Olaparib] (partner 8 µM)
Procedure, shortened: as §1

Cell Line | relative viability ([1]; first compound 0.2 µM) | relative viability ([1]; first compound 0.6325 µM) | relative viability ([1]; first compound 2 µM) | relative viability ([1]; first compound 6.325 µM) | relative viability (AZD6482 + OSI-027; first compound 0.08 µM) | relative viability (AZD6482 + OSI-027; first compound 0.253 µM) | relative viability (AZD6482 + OSI-027; first compound 0.8 µM) | relative viability (AZD6482 + OSI-027; first compound 2.53 µM) | relative viability (AZD6482 + OSI-027; first compound 8 µM) | relative viability (AZD6482 + Decitabine; first compound 0.08 µM) | relative viability (AZD6482 + Decitabine; first compound 0.253 µM) | relative viability (AZD6482 + Decitabine; first compound 0.8 µM) | relative viability (AZD6482 + Decitabine; first compound 2.53 µM) | relative viability (AZD6482 + Decitabine; first compound 8 µM) | relative viability (AZD6482 + Olaparib; first compound 0.08 µM) | relative viability (AZD6482 + Olaparib; first compound 0.253 µM) | relative viability (AZD6482 + Olaparib; first compound 0.8 µM) | relative viability (AZD6482 + Olaparib; first compound 2.53 µM) | relative viability (AZD6482 + Olaparib; first compound 8 µM)
NCI-H2342 | 0.81 | 0.742 | 0.741 | 0.761 | 0.542 | 0.586 | 0.568 | 0.448 | 0.471 | 0.636 | 0.643 | 0.736 | 0.568 | 0.587 | 0.346 | 0.368 | 0.4 | 0.42 | 0.329
NCI-H647 | 0.161 | 0.199 | 0.19 | 0.152 | 0.459 | 0.513 | 0.612 | 0.335 | 0.315 | 0.374 | 0.406 | 0.302 | 0.236 | 0.361 | 0.544 | 0.482 | 0.554 | 0.373 | 0.419
SK-MES-1 | 1.06 | 0.887 | 0.904 | 0.495 | 0.502 | 0.554 | 0.417 | 0.302 | 0.293 | 0.331 | 0.279 | 0.396 | 0.28 | 0.275 | 0.457 | 0.598 | 0.529 | 0.305 | 0.336
NCI-H2170 | 0.256 | 0.26 | 0.271 | 0.274 | 0.66 | 0.631 | 0.612 | 0.531 | 0.677 | 0.427 | 0.443 | 0.432 | 0.423 | 0.442 | 0.536 | 0.608 | 0.511 | 0.542 | 0.489
NCI-H2085 | 0.827 | 1.02 | 0.943 | 0.87 | 0.523 | 0.478 | 0.473 | 0.28 | 0.331 | 0.485 | 0.456 | 0.471 | 0.357 | 0.403 | 0.632 | 0.358 | 0.45 | 0.36 | 0.303
SW 1573 | 0.797 | 0.682 | 0.733 | 0.623 | 0.662 | 0.52 | 0.558 | 0.341 | 0.347 | 0.545 | 0.449 | 0.434 | 0.332 | 0.454 | 0.478 | 0.4 | 0.486 | 0.401 | 0.369
NCI-H441 | 0.256 | 0.264 | 0.246 | 0.276 | 0.669 | 0.4 | 0.627 | – | 0.508 | 0.254 | 0.198 | 0.295 | – | 0.214 | 0.604 | 0.525 | 0.541 | – | 0.449
LOU-NH91 | 0.411 | 0.393 | 0.401 | 0.398 | 0.606 | 0.702 | 0.66 | 0.455 | 0.579 | 0.753 | 0.828 | 0.788 | 0.661 | 0.7 | 0.851 | 0.917 | 0.898 | 0.595 | 0.755
NCI-H3122 | 0.206 | 0.198 | 0.19 | 0.2 | 1.01 | 1.01 | 0.89 | – | 0.465 | 0.474 | 0.393 | 0.389 | 0.277 | 0.298 | 0.608 | 0.729 | 0.657 | 0.585 | 0.616
NCI-H460 | 0.063 | 0.0592 | 0.0662 | 0.0719 | 0.631 | 0.589 | 0.543 | 0.326 | 0.292 | 0.445 | 0.38 | 0.618 | 0.452 | 0.395 | 0.335 | 0.394 | 0.435 | 0.216 | 0.327
NCI-H650 | 0.935 | 0.877 | 0.924 | 0.92 | 0.588 | – | 0.457 | 0.305 | 0.356 | 0.318 | 0.292 | 0.378 | 0.33 | 0.317 | 0.315 | 0.364 | 0.337 | 0.31 | 0.268
NCI-H661 | 0.882 | 0.894 | 0.904 | 0.923 | 0.651 | 0.722 | 0.649 | 0.4 | 0.435 | 0.557 | 0.569 | 0.571 | 0.498 | 0.422 | 0.733 | 0.857 | 0.83 | 0.719 | 0.729
NCI-H1793 | 0.919 | 1.19 | 0.945 | 0.797 | 0.266 | 0.243 | 0.261 | 0.132 | 0.16 | 0.419 | 0.429 | 0.313 | 0.297 | 0.271 | 0.559 | 0.413 | 0.502 | 0.306 | 0.406
NCI-H1734 | 0.405 | 0.414 | 0.401 | 0.424 | 0.46 | 0.509 | 0.542 | 0.362 | 0.387 | 0.508 | 0.476 | 0.463 | 0.407 | 0.435 | 0.509 | 0.538 | 0.531 | 0.365 | 0.509
LXF-289 | 0.924 | 0.879 | 0.999 | 0.828 | 0.825 | 0.643 | 0.772 | 0.559 | 0.615 | 0.356 | 0.422 | 0.36 | 0.356 | 0.369 | 1.02 | 1.05 | 1.11 | 0.986 | 0.918
H3255 | 0.563 | 0.557 | 0.595 | 0.547 | 0.618 | 0.53 | 0.554 | 0.411 | 0.392 | 0.474 | 0.531 | 0.539 | 0.388 | 0.472 | 0.559 | 0.567 | 0.596 | 0.492 | 0.55
201T | 0.31 | 0.334 | 0.335 | 0.279 | 0.657 | 0.663 | 0.631 | 0.462 | 0.601 | 0.855 | 0.763 | 0.844 | 0.816 | 0.812 | 0.839 | 0.8 | 0.872 | 0.727 | 0.848

— the supplement of paper PMC10307832
